This experiment deals with T1, VHL (VCB E3 ligase complex) (Homo sapiens, UniProt P40337).
T1 construct: VCB complex (VHL·EloB·EloC); with Elongin B, Elongin C
The experiment can be described thus: fluorescence polarization; ternary complex with BCL-xL by native MS. Format: binding. (In general: Polarisation of emitted light reports the rotation of a fluorescent probe.)

As a reminder, the IC50 is the concentration that inhibits the measured activity by half. A lower IC50 goes with greater potency.

T1 sequence (P40337 whole entry): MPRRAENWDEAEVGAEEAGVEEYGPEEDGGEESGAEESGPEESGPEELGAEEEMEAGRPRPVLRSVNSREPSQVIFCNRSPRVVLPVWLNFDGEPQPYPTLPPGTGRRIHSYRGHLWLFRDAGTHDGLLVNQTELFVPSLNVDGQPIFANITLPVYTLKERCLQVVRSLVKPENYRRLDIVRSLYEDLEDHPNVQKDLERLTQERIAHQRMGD
T1 sequence (Q15370 whole entry partner): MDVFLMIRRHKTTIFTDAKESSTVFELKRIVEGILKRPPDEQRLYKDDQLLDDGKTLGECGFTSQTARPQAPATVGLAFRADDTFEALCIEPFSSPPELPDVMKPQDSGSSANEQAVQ
T1 sequence (Q15369 whole entry partner): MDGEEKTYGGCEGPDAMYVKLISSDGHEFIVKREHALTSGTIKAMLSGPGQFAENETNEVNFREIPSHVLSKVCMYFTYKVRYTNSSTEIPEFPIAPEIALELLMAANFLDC

`Cc1ncsc1-c1ccc([C@H](C)NC(=O)[C@@H]2C[C@@H](O)CN2C(=O)[C@@H](NC(=O)CCCCCC(=O)N2CCN(CC[C@H](CSc3ccccc3)Nc3ccc(S(=O)(=O)NC(=O)c4ccc(N5CCN(CC6=C(c7ccc(Cl)cc7)CCC(C)(C)C6)CC5)cc4)cc3S(=O)(=O)C(F)(F)F)CC2)C(C)(C)C)cc1` [DT2216] yielded a half-maximal inhibitory concentration (IC50) of 10.6 µM.

Source of the values: publication PMC12917756, “Unveiling BCL-xL-specific PROTAC efficiency and dissociation pathways using native mass spectrometry” (Chemical Science, 2026).
